Results: US6465176B1, “Method for identifying compounds RNA/RNA binding protein interactions” (Message Pharmaceuticals, Inc., priority 1998, dated 2002)

Assays:
[1] = tested on: AUUUA RNA / RNA binding protein (K562 extract); experiment: High throughput filter binding assay, 32P-labeled AUUUA RNA with K562 protein extract (exploratory library screen)
Source text: (§1) FIG. 4 is a graph of the amount of radioactively labeled RNA retained on a filter (expressed in percent of the amount of RNA retained on a filter in a reference binding solution) following loading of various binding solutions. All of the binding solutions contained radioactively labeled AUUUA RNA either alone or including various other components. The first column represents a binding solution without RNA binding protein. The remaining columns represent binding solution containing RNA binding protein (K562 extract). Columns 3 through 8 correspond to binding solutions including the indicated test compound.
(§2) All binding reactions were performed in 96-well v-bottom plates in a final volume of 10 μl. The assays were constituted and performed as described below. Specifically, assays were performed by (1) forming a binding solution including RNA molecules, 7.5 mM BTP at pH 8.5, 10 mM KCl, 5 mM MgCl2, 0.2 mM DTT, and 10% glycerol, (2) heating the binding solution to denature the RNA molecules, (3) cooling the binding solution, (4) adding RNA binding proteins to the binding solution, (5) loading the binding solution onto a filter, and (6) detecting the amount RNA retain on the filter.
The library was initially screened at 10 μM against ^32P-labeled AUUUA RNA. Several methods of introducing the compounds into the binding reaction were tested. Initially the compounds were co-incubated with the RNA and protein, producing modest results. Next, preincubation with either the protein extract or the RNA was tried with improved results.
Seventeen compounds were chosen for further analysis at 100 nM, 1 μM and 10 μM using both AUUUA and IRE RNAs based on the results from three screening efforts (Exps. 29-31). Table 1 summarizes the results from these compounds at 10 μM. The results are also shown graphically in FIG. 4. […] Compounds D9 and H2, chosen as negative controls from the initial screening, continued to have no effect in the dose dependent screen (Exp. 33) and were identified as vehicle controls.
A 96 member random compound library was screened with the disclosed high throughput assay. The compounds were initially screened at 10 μM against ^32P-labeled AUUUA RNA. […] Seventeen compounds were chosen for further analysis at 100 nM, 1 μM and 10 μM using both AUUUA and IRE RNA molecules to determine if any selectivity of the compounds could be detected. […] Gel shifts of these compounds using AUUUA RNA confirmed the activity of the inhibitors.

[2] = tested on: TNF-α production; conditions: previously shown; cited from earlier work
[3] = tested on: IRE RNA / RNA binding protein (K562 protein extract); experiment: High throughput filter binding assay, IRE RNA with K562 protein extract; conditions: increasing concentrations: hemin 1 to 100 μM, FeCl3 and desferroxiamine 1 μM to 1 mM
Source text: as §1, with “3” for “4”, “IRE” for “AUUUA”, “extract).” for “extract). Columns 3 through 8 correspond to binding solutions including the indicated test compound.”
FIG. 5 is a graph of the amount of radioactively labeled RNA retained on a filter (expressed in percent of the amount of RNA retained on a filter in a reference binding solution) following loading of various binding solutions. Alternate columns correspond to binding solutions containing radioactively labeled AUUUA RNA or IRE RNA, either alone or including various other components. The first two column represents binding solutions without RNA binding protein. The remaining columns represent binding solution containing RNA binding protein (K562 extract). Columns 5 through 40 correspond to binding solutions including the indicated amount of the indicated test compound.
as §2, with “filter. […]” for “filter.”
Binding assays were performed with wild-type IRE RNA and K562 protein extract in the presence of sources of iron or iron chelators to determine the ability of the filter assay to detect the modulation of binding interactions by small molecules. […] The reactions were analyzed by gel shifts to visualize the results of the filter assay. […]

[4] = tested on: His RNA / RNA binding protein; experiment: Filter binding competition assay, His RNA; conditions: increasing concentrations of unlabeled RNA
Description: as §2
To more fully test the filter assay, competitions were performed with U1 and His RNAs as well. U1 RNA has the sequence AAUCCAUUGCAC UCCGGAUUU (SEQ ID NO:10; M14587). His RNA has the sequence […] (SEQ ID NO:11; X57138). […] The results of the U1 and His filter assay competitions reflect the ability of the assay to detect low affinity as well as higher affinity binding interactions.
Competition studies have been performed using the filter assay in which unlabeled wild-type or mutant RNA is added to the reaction at 100 to 10,000 times the concentration of ^32P-RNA to compete for the protein binding of the radiolabeled RNA. […] In this case, the mutant RNA has a weak binding affinity for the RNA binding protein. […]

[5] = tested on: U1 RNA / RNA binding protein (K562 extract); experiment: Filter binding competition assay, U1 RNA; conditions: increasing concentrations of unlabeled RNA
Source text: FIG. 2 is a graph of the amount of radioactively labeled RNA retained on a filter (expressed in percent of the amount of RNA retained on a filter in a reference binding solution) following loading of various binding solutions. All of the binding solutions contained radioactively labeled U1 RNA either alone or including various other components. The first two columns represent binding solutions without RNA binding protein. The remaining columns represent binding solution containing RNA binding protein (K562 extract). […] In this instance, the U1 mutant interacts with less affinity than does the wild type sequence.
as §2
To more fully test the filter assay, competitions were performed with U1 and His RNAs as well. U1 RNA has the sequence AAUCCAUUGCAC UCCGGAUUU (SEQ ID NO:10; M14587). His RNA has the sequence […] […]

[6] = compound 10 μM, K562 extract, RNA & K562 = 100.00

## C/C(=N\NC(=N)N)c1cc(NC(=O)CCCCCCCCC(=O)Nc2cc(/C(C)=N/NC(=N)N)cc(/C(C)=N/NC(=N)N)c2)cc(/C(C)=N/NC(=N)N)c1 [Compound G10, CNI-1493]
[1]; 10 μM
  effect on counts over the 4 experiments: substantial increase in counts in 3 of the 4 experiments
[1]; compound 10 μM, K562 extract
  Avg. % (labeled RNA retained on filter, average of Experiments #29-#31 and #33): 111.00%
[1]; [6]
  Labeled RNA retained on filter, percent of RNA & K562 reference, Experiment #29: 114.53%
  Labeled RNA retained on filter, percent of RNA & K562 reference, Experiment #30: 66.94%
  Labeled RNA retained on filter, percent of RNA & K562 reference, Experiment #31: 127.28%
  Labeled RNA retained on filter, percent of RNA & K562 reference, Experiment #33: 135.24%
[2]
  effect on TNF-α production: post-transcriptionally inhibit TNF-α production

## CC(=O)N(O)CCCCCNC(=O)CCC(=O)N(O)CCCCCNC(=O)CCC(=O)N(O)CCCCCN [Desferroxiamine, desferroxiamine]
[3]
  modulation of IRE/protein binding by small molecules: did not change the amount IRE/protein complex formed

## [Cl][Fe]([Cl])[Cl] [FeCl3]
[3]
  modulation of IRE/protein binding by small molecules: concentration-dependent inhibition of binding

## His wild-type RNA: His RNA, sequence AAAAAGGCUCUUUUCAGAGCCACCCA (SEQ ID NO:11) (listed as RNA, chemistry not given here)
[4]
  competition by unlabeled RNA for binding of labeled His RNA (filter assay): concentration dependent inhibition of binding

## U1 wild-type RNA: U1 RNA, sequence AAUCCAUUGCAC UCCGGAUUU (SEQ ID NO:10) (AAUCCAUUGCACUCCGGAUUU; listed as RNA, chemistry not given here)
[5]
  competition by unlabeled RNA for binding of labeled U1 RNA (filter assay): concentration dependent inhibition of binding

## hemin
[3]
  modulation of IRE/protein binding by small molecules: concentration-dependent inhibition of binding
